Results taken from US20200390100A1, “SUBSTITUTED N-HETEROCYCLYL- AND N-HETEROARYL-TETRAHYDROPYRIMIDINONES AND THE SALTS THEREOF, AND THE USE OF SAME AS HERBICIDAL ACTIVE SUBSTANCES” (Bayer Aktiengesellschaft, priority 2017, published 2020).

Columns and labels:
Format in all cases: in vivo
Stellaria media [1] = assay: Post-emergence herbicidal action, greenhouse, 320 g/ha; settings: application rate 320 g/ha, rated visually after about 3 weeks vs untreated controls
Procedure: (§1) Seeds of monocotyledonous and dicotyledonous weeds and crop plants were placed in sandy loam in plastic or wood-fiber pots, covered with soil and cultivated in a greenhouse under controlled growth conditions. 2 to 3 weeks after sowing, the test plants were treated at the one-leaf stage. The compounds of the invention, formulated in the form of wettable powders (WP) or as emulsion concentrates (EC), were then sprayed onto the green parts of the plants as aqueous suspension or emulsion with addition of 0.5% additive at a water application rate of […] (converted). After the test plants had been kept in the greenhouse under optimum growth conditions for about 3 weeks, the activity of the preparations was rated visually in comparison to untreated controls. For example, 100% activity=the plants have died, 0% activity=like control plants. Tables A1 to A14 below show the effects of selected compounds of the general formula (I) according to Tables 1.1 to 1.150 on various harmful plants and at an application rate corresponding to 320 g/ha, which were obtained by the experimental procedure mentioned above.

Setaria viridis [2] = assay: as above; settings: application rate 320 g/ha, rated visually after about 3 weeks vs untreated controls
Procedure: as §1

Viola tricolor [3] = assay: as above; settings: application rate 320 g/ha, rated visually after about 3 weeks vs untreated controls
Procedure: as §1

Amaranthus retroflexus [4] = assay: as above; settings: application rate 320 g/ha, rated visually after about 3 weeks vs untreated controls
Procedure: as §1

Stellaria media [5] = assay: Pre-emergence herbicidal action, greenhouse, 320 g/ha; settings: application rate 320 g/ha, scored visually after about 3 weeks vs untreated controls
Source text: (§2) Seeds of monocotyledonous and dicotyledonous weed plants and crop plants were placed in plastic or organic planting pots and covered with soil. The compounds of the invention, formulated in the form of wettable powders (WP) or as emulsion concentrates (EC), were then applied to the surface of the covering soil as aqueous suspension or emulsion with addition of 0.5% additive at a water application rate equivalent to […]. After the treatment, the pots were placed in a greenhouse and kept under good growth conditions for the test plants. After about 3 weeks, the effect of the preparations is scored visually in comparison with untreated controls as percentages. For example, 100% activity=the plants have died, 0% activity=like control plants. Tables B1 to B14 below show the effects of selected compounds of the general formula (I) according to Tables I.1 to I.150 on various harmful plants and at an application rate corresponding to 320 g/ha, which were obtained by the experimental procedure mentioned above.

Digitaria sanguinalis = assay: as above; settings: application rate 320 g/ha, Table B9
Source text: as §2

Polygonum convolvulus = assay: as above; settings: application rate 320 g/ha, scored visually after about 3 weeks vs untreated controls
Source text: as §2

Setaria viridis [6] = assay: as above; settings: application rate 320 g/ha, Table B11
Source text: as §2

Viola tricolor [7] = assay: as above; settings: application rate 320 g/ha, Table B8
Source text: as §2

Matricaria inodora = assay: as above; settings: application rate 320 g/ha, scored visually after about 3 weeks vs untreated controls
Source text: as §2

Amaranthus retroflexus [8] = assay: as above; settings: application rate 320 g/ha, scored visually after about 3 weeks vs untreated controls
Source text: as §2

Abutilon theophrasti = assay: as above; settings: application rate 320 g/ha, scored visually after about 3 weeks vs untreated controls
Source text: as §2

Avena fatua = assay: as above; settings: application rate 320 g/ha, scored visually after about 3 weeks vs untreated controls
Source text: as §2

Pharbitis purpurea = assay: as above; settings: application rate 320 g/ha, Table B12
Source text: as §2

Veronica persica = assay: as above; settings: application rate 320 g/ha, Table B13
Source text: as §2

Alopecurus myosuroides = assay: as above; settings: application rate 320 g/ha, scored visually after about 3 weeks vs untreated controls
Source text: as §2

Structure (SMILES): CN1CCC(O)N(c2cc(C(F)(F)F)c(Cl)cn2)C1=O (stereo not shown) [I.1-451]
- Stellaria media (efficacy in %) (Stellaria media [1]): 100%
- Setaria viridis (efficacy in %) (Setaria viridis [2]): 80%
- Viola tricolor (efficacy in %) (Viola tricolor [3]): 100%
- Amaranthus retroflexus (efficacy in %) (Amaranthus retroflexus [4]): 100%
- Stellaria media (efficacy in %) (Stellaria media [5]): 100%
- Digitaria sanguinalis (efficacy in %) (Digitaria sanguinalis): 90%
- Polygonum convolvulus (efficacy in %) (Polygonum convolvulus): 90%
- Setaria viridis (efficacy in %) (Setaria viridis [6]): 90%
- Viola tricolor (efficacy in %) (Viola tricolor [7]): 100%
- Matricaria inodora (efficacy in %) (Matricaria inodora): 100%
- Amaranthus retroflexus (efficacy in %) (Amaranthus retroflexus [8]): 90%

Structure (SMILES): CN1CCC(O)N(c2cc(C(F)(F)F)c(Br)cn2)C1=O (stereo not shown) [I.1-464]
- Stellaria media (efficacy in %) (Stellaria media [1]): 90%
- Viola tricolor (efficacy in %) (Viola tricolor [3]): 100%
- Amaranthus retroflexus (efficacy in %) (Amaranthus retroflexus [4]): 100%
- Abutilon theophrasti (efficacy in %) (Abutilon theophrasti): 100%
- Stellaria media (efficacy in %) (Stellaria media [5]): 100%
- Digitaria sanguinalis (efficacy in %) (Digitaria sanguinalis): 100%
- Polygonum convolvulus (efficacy in %) (Polygonum convolvulus): 100%
- Avena fatua (efficacy in %) (Avena fatua): 80%
- Setaria viridis (efficacy in %) (Setaria viridis [6]): 100%
- Viola tricolor (efficacy in %) (Viola tricolor [7]): 100%
- Pharbitis purpurea (efficacy in %) (Pharbitis purpurea): 100%
- Matricaria inodora (efficacy in %) (Matricaria inodora): 100%
- Veronica persica (efficacy in %) (Veronica persica): 100%
- Alopecurus myosuroides (efficacy in %) (Alopecurus myosuroides): 80%
- Amaranthus retroflexus (efficacy in %) (Amaranthus retroflexus [8]): 100%

Structure (SMILES): CN1CCC(O)N(c2cc(C(F)(F)F)ncn2)C1=O (stereo not shown) [I.1-506]
- Setaria viridis (efficacy in %) (Setaria viridis [2]): 100%
- Amaranthus retroflexus (efficacy in %) (Amaranthus retroflexus [4]): 100%
- Abutilon theophrasti (efficacy in %) (Abutilon theophrasti): 80%
- Stellaria media (efficacy in %) (Stellaria media [5]): 100%
- Digitaria sanguinalis (efficacy in %) (Digitaria sanguinalis): 100%
- Polygonum convolvulus (efficacy in %) (Polygonum convolvulus): 100%
- Avena fatua (efficacy in %) (Avena fatua): 80%
- Setaria viridis (efficacy in %) (Setaria viridis [6]): 100%
- Viola tricolor (efficacy in %) (Viola tricolor [7]): 100%
- Pharbitis purpurea (efficacy in %) (Pharbitis purpurea): 100%
- Matricaria inodora (efficacy in %) (Matricaria inodora): 100%
- Veronica persica (efficacy in %) (Veronica persica): 80%
- Alopecurus myosuroides (efficacy in %) (Alopecurus myosuroides): 90%
- Amaranthus retroflexus (efficacy in %) (Amaranthus retroflexus [8]): 90%
